Measurements taken from patent US20240207157A1, “ORAL CARE AGENT” (priority 2021, published 2024).

How the values were obtained:
[1] = tested on: human epidermal HaCaT keratinocytes; assay: fluorometric CyQUANT cell proliferation study (DNA content); assay type: cell-based; conditions: 0.00005, 0.0005, 0.005% caffeine; 24, 48 or 72 hours; best effects after 72 hours
Method: To investigate the effect of caffeine on cell proliferation of human epidermal HaCaT keratinocytes, human HaCaT keratinocytes were subjected to a CyQUANT viability assay, wherein the following series of experiments were performed: • 1. P22 Experiment 1 (biological assay 1) • 2. P24 Experiment 2 (biological assay 2).
The trial durations were 24, 48 or 72 hours.
The study was carried out by fluorometric CyQUANT study, wherein the DNA content was measured, reflecting cell proliferation.

VEGF [2] = assay: Q-PCR, VEGF mRNA expression in HaCaT cell lysates; assay type: cell-based, human
Method: (§1) For Q-PCR: Determination of VEGF, HGF and EGF mRNA expression in cell lysates • 2. For ELISA: Determination of VEGF, HGF and EGF protein synthesis/secretion into the culture medium
(§2) The initial cell count was • 1. for Q-PCR: 140,000 cells/well in 1500 μl culture medium • 2. for ELISA: 140,000 cells/well in 1.500 μl culture medium.
(§3) The trial duration for • 1. Q-PCR was 24 hours (single treatment at time 0 h) • 2. ELISA was 48 hours (double treatment at time 0 h and 24 h without changing the medium).
(§4) The study was carried out • 1. for Q-PCR by determining VEGF mRNA expression in cell lysates • 2. for ELISA by determining VEGF protein synthesis/secretion in the culture medium.

VEGF [3] = assay: ELISA, VEGF protein synthesis/secretion into the culture medium of HaCaT cells; assay type: cell-based, human; conditions: 48 hours
Method: as §1, §2, §3, §4

GM-CSF [4] = assay: Q-PCR, GM-CSF experiments in HaCaT cells; assay type: cell-based, human; conditions: all tested caffeine concentrations, 24 h, Experiments 1 and 2
Method: as §1, §2, §3

GM-CSF [5] = assay: ELISA, GM-CSF experiments in HaCaT cells; assay type: cell-based, human; conditions: 48 h
Method: as §1, §2, §3

TGFβ1 = assay: Q-PCR, TGFβ1 mRNA expression in HaCaT cells; assay type: cell-based, human
TGFβ2 = assay: Q-PCR, TGFβ2 mRNA expression in HaCaT cells; assay type: cell-based, human
[6] = humans, after drinking four cups of coffee; cited from earlier work
[7] = tested on: human epidermal HaCaT keratinocytes; assay: colorimetric MTT viability study on HaCaT keratinocytes
Method: To investigate the effect of caffeine on the biological functions of human epidermal HaCaT keratinocytes, cell experiments were performed on human epidermal HaCaT keratinocytes, wherein the following studies were carried out: • 1.
The initial cell count was 5000 cells/well in 100 μl culture medium.
The culture medium was HaCaT medium (DMEM with the addition of 10% FBS, 1% penicillin-streptomycin, 0.5% fungizone).
The treatment groups were as follows: • 1. Control group (CTRL) • 2. 0.00005% caffeine • 3. 0.0001% caffeine • 4. 0.0005% caffeine • 5. 0.001% caffeine • 6. 0.005% caffeine
The trial durations were 24, 48 and 72 hours.
The study took the form of a colorimetric MTT study.

[8] = 0.0005% caffeine, both experiments

Structure (SMILES): Cn1c(=O)c2c(ncn2C)n(C)c1=O [caffeine]
- cell proliferation [1]: appears to promote cell proliferation
- mRNA expression of VEGF compared to the control group (VEGF [2]; all caffeine concentrations, 24 hours treatment, Experiments 1 and 2): appear to increase mRNA expression of VEGF
- synthesis and production/secretion of VEGF (VEGF [2]; certain concentrations of caffeine, Q-PCR and ELISA taken together): increase the synthesis and production/secretion of VEGF
- VEGF protein production/secretion compared to the control group (VEGF [3]; [8]): increases VEGF protein production/secretion
- VEGF protein production/secretion compared to the control group (VEGF [3]; 0.005% caffeine, Experiment 2): also showed an effect
- mRNA expression of VEGF compared to the control group (experiments regarding GM-CSF) (GM-CSF [4]): apparently increased the mRNA expression of VEGF
- VEGF protein production/secretion compared to the control group (experiments regarding GM-CSF) (GM-CSF [5]; 0j.005% caffeine, Experiment 2): also showed an effect
- VEGF protein production/secretion compared to the control group (experiments regarding GM-CSF) (GM-CSF [5]; [8]): increased VEGF protein production/secretion
- mRNA expression of TGFβ1 (TGFβ1; all tested caffeine concentrations, 24 h, Experiments 1 and 2): None of the tested caffeine concentrations changed the mRNA expression of TGFβ1
- synthesis/production/secretion of TGFβ1 (TGFβ1; taken together, Q-PCR and ELISA): does not alter
- mRNA expression of TGFβ2 (TGFβ2; certain caffeine concentrations, 24 h, Experiment 2): apparently increase mRNA expression of TGFβ2
- synthesis/production/secretion of TGFβ2 (TGFβ2; taken together, contradictory results in the two Q-PCR experiments): most likely does not alter
- caffeine concentration in the blood serum [6]: 20 to 50 µmol/L
- total amount corresponding to the serum concentration [6]: 15-35 milligrams
- cytotoxicity ([7]; 0.00005-0.005% caffeine, up to 72 hours): none of the concentrations tested showed cytotoxicity
- number of viable cells ([7]; certain concentrations of caffeine, MTT): increased the number of viable cells
